Results from patent US20260035382A1, “COMPOUNDS AS SUMO ACTIVATING ENZYME INHIBITORS” (WIGEN BIOMEDICINE TECHNOLOGY (SHANGHAI) CO., LTD., priority 2022, published 2026).

The compounds below were run against SAE (Homo sapiens (Human), UniProt Q9UBT2) (assay: In vitro inhibitory activity assay against SAE (SUMO-2/3 immunofluorescence in HCT116 cells)). Settings: 6 h incubation, class symbols, read-out: SUMO IF IC50.
Assay type: cell-based
Method: HCT116 cells were seeded into a 96-well black transparent bottom plate at about 20000/well with 90 μL per well. The cells were incubated at 37° C. overnight for 24 h. The test compounds were 10-fold diluted to give a final concentration, and 10 μL of the diluted compounds was added to each well of the cell culture plate. The mixture was incubated at 37° C. for 6 h. The cells were then washed gently, the culture medium was discarded, and the cells were washed once with 200 μL of 0.1% o PBST. 50 μL of 4% PFA was added to each well, and the cells were immobilized at room temperature for 20 min, and then washed with PBS 2-3 times. 50 μL of 0.2% o Triton X-100 was added to each well, and the cells were left to stand at room temperature for 15 min and washed with 0.1% PBST 3 times. 100 uL of 3% BSA (0.6 g BSA+20 mL PBS) was added to each well, and the mixture was blocked at 37° C. for 30 min. After the blocking was completed, the liquid was removed and a primary antibody (SUMO-2/3 (181H8) Rabbit mAb, 1:400 dilution) was prepared with […]. 30 μL of the diluted primary antibody was added to each well, and the mixture was incubated at 4° C. overnight. The cells were washed 3 times with 200 μL of 0.1% o PBST. A FITC secondary antibody (Fluorescein (FITC)-conjugated Affinipure Goat Anti-Rabbit IgG (H+L), 1:300 dilution) was further prepared with 1% o BSA, and 40 μL of the diluted secondary antibody was added to each well. The mixture was incubated at room temperature in the dark for 2 h, and then the cells were washed 4 times with 0.1% PBST. The fluorescence signal of the sample was detected and compared to the DMSO group, and the inhibition rate and IC50 were calculated.

Sequence of SAE (Q9UBT2 whole entry): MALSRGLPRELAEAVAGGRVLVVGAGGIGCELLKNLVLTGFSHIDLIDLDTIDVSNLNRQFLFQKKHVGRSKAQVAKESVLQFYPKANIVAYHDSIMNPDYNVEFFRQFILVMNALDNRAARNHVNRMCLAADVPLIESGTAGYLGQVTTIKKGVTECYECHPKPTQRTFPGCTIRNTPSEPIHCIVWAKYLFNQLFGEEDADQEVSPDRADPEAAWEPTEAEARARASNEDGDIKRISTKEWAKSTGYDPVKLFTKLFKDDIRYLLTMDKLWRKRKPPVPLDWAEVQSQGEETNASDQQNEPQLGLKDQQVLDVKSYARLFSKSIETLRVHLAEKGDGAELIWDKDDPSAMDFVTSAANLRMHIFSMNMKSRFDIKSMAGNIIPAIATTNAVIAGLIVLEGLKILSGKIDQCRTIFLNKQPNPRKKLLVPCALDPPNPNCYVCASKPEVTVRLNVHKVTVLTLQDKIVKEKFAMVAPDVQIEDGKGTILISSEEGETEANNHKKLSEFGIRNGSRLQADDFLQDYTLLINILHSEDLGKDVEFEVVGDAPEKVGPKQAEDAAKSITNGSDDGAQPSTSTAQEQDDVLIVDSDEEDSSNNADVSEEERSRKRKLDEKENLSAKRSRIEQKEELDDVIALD
Sequence of SAE (Q9UBE0 whole entry partner): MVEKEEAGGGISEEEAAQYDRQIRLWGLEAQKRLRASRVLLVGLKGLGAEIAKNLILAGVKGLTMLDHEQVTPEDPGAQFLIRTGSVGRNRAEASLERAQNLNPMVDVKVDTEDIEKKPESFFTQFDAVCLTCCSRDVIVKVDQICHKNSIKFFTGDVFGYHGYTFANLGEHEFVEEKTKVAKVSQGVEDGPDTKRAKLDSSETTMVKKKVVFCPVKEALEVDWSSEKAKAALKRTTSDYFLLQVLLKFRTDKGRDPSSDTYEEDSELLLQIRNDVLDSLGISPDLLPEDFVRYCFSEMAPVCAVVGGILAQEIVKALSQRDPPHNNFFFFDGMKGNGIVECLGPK

| SMILES | IC50 [nM] |
| --- | --- |
| NS(=O)(=O)OC[C@H]1C[C@@H](Nc2ncncc2C(=O)c2cc3c(s2)OC[C@]32NCCc3ccccc32)C[C@@H]1O [Compound 57] | 50 to 200 |
| NS(=O)(=O)OC[C@H]1C[C@@H](Nc2ncncc2C(=O)c2cc3c(s2)OCC32NCCc3ccc(F)cc32)C[C@@H]1O (stereo partly shown) [Compound 58] | > 200 |
| NS(=O)(=O)OC[C@H]1C[C@@H](Nc2ncncc2C(=O)c2cc3c(s2)OC[C@@]32NCCc3ccc(F)cc32)C[C@@H]1O [Compound 59] | > 200 |
| NS(=O)(=O)OC[C@H]1C[C@@H](Nc2ncncc2C(=O)c2cc3c(s2)OC[C@]32NCCc3ccc(F)cc32)C[C@@H]1O [Compound 60] | 50 to 200 |
| NS(=O)(=O)OC[C@H]1C[C@@H](Nc2ncncc2C(=O)c2cc3c(s2)OCC32NCCc3ccc(Cl)cc32)C[C@@H]1O (stereo partly shown) [Compound 61] | 50 to 200 |
| NS(=O)(=O)OC[C@H]1C[C@@H](Nc2ncncc2C(=O)c2cc3c(s2)OC[C@@]32NCCc3ccc(Cl)cc32)C[C@@H]1O [Compound 62] | > 200 |
| NS(=O)(=O)OC[C@H]1C[C@@H](Nc2ncncc2C(=O)c2cc3c(s2)OC[C@]32NCCc3ccc(Cl)cc32)C[C@@H]1O [Compound 63] | 50 to 200 |
| Cc1ccc2c(c1)C1(CCc3sc(C(=O)c4cncnc4N[C@@H]4C[C@H](COS(N)(=O)=O)[C@@H](O)C4)cc31)NCC2 (stereo partly shown) [Compound 64] | 50 to 200 |
| NS(=O)(=O)OC[C@H]1C[C@@H](Nc2ncncc2C(=O)c2cc3c(s2)CCC32NCCc3ccc(C4CC4)cc32)C[C@@H]1O (stereo partly shown) [Compound 65] | 50 to 200 |
| COc1ccc2c(c1)C1(CCc3sc(C(=O)c4cncnc4N[C@@H]4C[C@H](COS(N)(=O)=O)[C@@H](O)C4)cc31)NCC2 (stereo partly shown) [Compound 66] | > 200 |
| NS(=O)(=O)OC[C@H]1C[C@@H](Nc2ncncc2C(=O)c2cc3c(s2)CCC32NCCc3ccc(C(F)(F)F)cc32)C[C@@H]1O (stereo partly shown) [Compound 67] | 50 to 200 |
| NS(=O)(=O)OC[C@H]1C[C@@H](Nc2ncncc2C(=O)c2cc3c(s2)CCC32NCCc3cc(F)c(F)cc32)C[C@@H]1O (stereo partly shown) [Compound 68] | 50 to 200 |
| NS(=O)(=O)OC[C@H]1C[C@@H](Nc2ncncc2C(=O)c2cc3c(s2)CCC32NCCc3cc(F)c(Cl)cc32)C[C@@H]1O (stereo partly shown) [Compound 69] | ≤ 50 |
| NS(=O)(=O)OC[C@H]1C[C@@H](Nc2ncncc2C(=O)c2cc3c(s2)CCC32NCCc3cc(Cl)c(Cl)cc32)C[C@@H]1O (stereo partly shown) [Compound 70] | 50 to 200 |
| Cc1cc2c(cc1Cl)C1(CCc3sc(C(=O)c4cncnc4N[C@@H]4C[C@H](COS(N)(=O)=O)[C@@H](O)C4)cc31)NCC2 (stereo partly shown) [Compound 71] | 50 to 200 |
| N#Cc1cc2c(cc1Cl)C1(CCc3sc(C(=O)c4cncnc4N[C@@H]4C[C@H](COS(N)(=O)=O)[C@@H](O)C4)cc31)NCC2 (stereo partly shown) [Compound 72] | 50 to 200 |
| COc1cc2c(cc1Cl)C1(CCc3sc(C(=O)c4cncnc4N[C@@H]4C[C@H](COS(N)(=O)=O)[C@@H](O)C4)cc31)NCC2 (stereo partly shown) [Compound 73] | 50 to 200 |
| NS(=O)(=O)OC[C@H]1C[C@@H](Nc2ncncc2C(=O)c2cc3c(s2)CCC32NCCc3cc(F)c(Cl)c(F)c32)C[C@@H]1O (stereo partly shown) [Compound 74] | 50 to 200 |
| NS(=O)(=O)OC[C@H]1C[C@@H](Nc2ncncc2C(=O)c2cc3c(s2)CCC32NCCc3cc(Cl)c(F)cc32)C[C@@H]1O (stereo partly shown) [Compound 75] | 50 to 200 |
| NS(=O)(=O)OC[C@H]1C[C@@H](Nc2ncncc2C(=O)c2cc3c(s2)CCC32NCCc3ccncc32)C[C@@H]1O (stereo partly shown) [Compound 76] | 50 to 200 |
| NS(=O)(=O)OC[C@H]1C[C@@H](Nc2ncncc2C(=O)c2cc3c(s2)CCC32NCCc3cc(Cl)ncc32)C[C@@H]1O (stereo partly shown) [Compound 77] | 50 to 200 |

| SMILES | IC50 [nM] |
| --- | --- |
| NS(=O)(=O)OC[C@H]1C[C@@H](Nc2ncncc2C(=O)c2cc3c(s2)C=CC32NCCc3ccc(Cl)cc32)C[C@@H]1O (stereo partly shown) [Compound 78] | ≤ 50 |
| NS(=O)(=O)OC[C@H]1C[C@@H](Nc2ncncc2C(=O)c2cc3c(s2)C=CC32NCCc3ccc(F)cc32)C[C@@H]1O (stereo partly shown) [Compound 79] | 50 to 200 |
| NS(=O)(=O)OC[C@H]1C[C@@H](Nc2ncncc2C(=O)c2cc3c(s2)COC32NCCc3ccc(Cl)cc32)C[C@@H]1O (stereo partly shown) [Compound 80] | 50 to 200 |
| NS(=O)(=O)OC[C@H]1C[C@@H](Nc2ncncc2C(=O)c2cc3c(s2)CCC32NCC3(CC3)c3ccc(Cl)cc32)C[C@@H]1O (stereo partly shown) [Compound 81] | 50 to 200 |
| NS(=O)(=O)OC[C@H]1C[C@@H](Nc2ncncc2C(=O)c2cc3c(s2)CCC32NC3(CC3)Cc3ccc(Cl)cc32)C[C@@H]1O (stereo partly shown) [Compound 82] | 50 to 200 |
| NS(=O)(=O)OC[C@H]1C[C@@H](Nc2ncncc2C(=O)c2cc3c(s2)CCC32NCC(=O)c3ccc(Cl)cc32)C[C@@H]1O (stereo partly shown) [Compound 83] | 50 to 200 |
| NS(=O)(=O)OC[C@H]1C[C@@H](Nc2ncncc2C(=O)c2cc3c(s2)CCC32OCCc3ccc(Cl)cc32)C[C@@H]1O (stereo partly shown) [Compound 84] | ≤ 50 |
| NS(=O)(=O)OC[C@H]1C[C@@H](Nc2ncncc2C(=O)c2cc3c(s2)CSCC32NCCc3ccccc32)C[C@@H]1O (stereo partly shown) [Compound 85] | > 200 |
| NS(=O)(=O)OC[C@H]1C[C@@H](Nc2ncncc2C(=O)c2cc3c(s2)CSC[C@@]32NCCc3ccccc32)C[C@@H]1O [Compound 86] | > 200 |
| NS(=O)(=O)OC[C@H]1C[C@@H](Nc2ncncc2C(=O)c2cc3c(s2)CSC[C@]32NCCc3ccccc32)C[C@@H]1O [Compound 87] | 50 to 200 |
| NS(=O)(=O)OC[C@H]1C[C@@H](Nc2ncncc2C(=O)c2cc3c(s2)CSCC32NCCc3ccc(F)cc32)C[C@@H]1O (stereo partly shown) [Compound 88] | ≤ 50 |
| NS(=O)(=O)OC[C@H]1C[C@@H](Nc2ncncc2C(=O)c2cc3c(s2)CSC[C@@]32NCCc3ccc(F)cc32)C[C@@H]1O [Compound 89] | > 200 |
| NS(=O)(=O)OC[C@H]1C[C@@H](Nc2ncncc2C(=O)c2cc3c(s2)CSC[C@]32NCCc3ccc(F)cc32)C[C@@H]1O [Compound 90] | ≤ 50 |
| NS(=O)(=O)OC[C@H]1C[C@@H](Nc2ncncc2C(=O)c2cc3c(s2)CSCC32NCCc3ccc(Cl)cc32)C[C@@H]1O (stereo partly shown) [Compound 91] | ≤ 50 |
| NS(=O)(=O)OC[C@H]1C[C@@H](Nc2ncncc2C(=O)c2cc3c(s2)COCC32NCCc3ccc(Cl)c(Cl)c32)C[C@@H]1O (stereo partly shown) [Compound 94] | 50 to 200 |
| NS(=O)(=O)OC[C@H]1C[C@@H](Nc2ncncc2C(=O)c2cc3c(s2)COC[C@@]32NCCc3ccc(Cl)c(Cl)c32)C[C@@H]1O [Compound 95] | > 200 |
| NS(=O)(=O)OC[C@H]1C[C@@H](Nc2ncncc2C(=O)c2cc3c(s2)COC[C@]32NCCc3ccc(Cl)c(Cl)c32)C[C@@H]1O [Compound 96] | 50 to 200 |
| NS(=O)(=O)OC[C@H]1C[C@@H](Nc2ncncc2C(=O)c2cc3c(s2)COCC32NCCc3cc(Cl)c(Cl)cc32)C[C@@H]1O (stereo partly shown) [Compound 97] | 50 to 200 |
| NS(=O)(=O)OC[C@H]1C[C@@H](Nc2ncncc2C(=O)c2cc3c(s2)COC[C@@]32NCCc3cc(Cl)c(Cl)cc32)C[C@@H]1O [Compound 98] | > 200 |
| NS(=O)(=O)OC[C@H]1C[C@@H](Nc2ncncc2C(=O)c2cc3c(s2)COC[C@]32NCCc3cc(Cl)c(Cl)cc32)C[C@@H]1O [Compound 99] | 50 to 200 |

Same assay, conditions: 6 h incubation, numeric values, read-out: SUMO IF IC50

| SMILES | IC50 [nM] |
| --- | --- |
| NS(=O)(=O)OC[C@H]1C[C@@H](Nc2ncncc2C(=O)c2cc3c(s2)CSC[C@@]32NCCc3ccc(Cl)cc32)C[C@@H]1O [Compound 92] | > 1000 |
| NS(=O)(=O)OC[C@H]1C[C@@H](Nc2ncncc2C(=O)c2cc3c(s2)CSC[C@]32NCCc3ccc(Cl)cc32)C[C@@H]1O [Compound 93] | 28.9 |
